# Where two headings read alike, the source gives them in different places.
# What was measured:
# [1] = test system: DU-145 human prostate cancer cells; test: Antiproliferative assay; type: cell-based; details: for GI50: read-out: GI50 DU-145; for Fold less active than 20b: DU-145 and MDA MB-231
# [2] = test system: MDA MB-231 human breast cancer cells; test: Antiproliferative assay; type: cell-based; details: for GI50: read-out: GI50 MDA MB-231
# Bovine brain tubulin [3] = test: Inhibition of tubulin assembly; type: biochemical; details: read-out: Tubulin assembly IC50; 10 μM tubulin; mean ±SD of at least two determinations
# Bovine brain tubulin [4] = test: Inhibition of [3H]colchicine binding to tubulin; details: 1.0 μM tubulin, 5.0 μM [3H]colchicine, mean ±SD
# Bovine brain tubulin [5] = details: 1.0 μM tubulin, 5.0 μM [3H]colchicine, mean ±SD; cited from earlier work
# Lung HOP-62 [6] = details: read-out: GI50 Lung HOP-62; NCI-60 panel; cited from earlier work
# Colon HCT-116 [7] = details: read-out: GI50 Colon HCT-116; NCI-60 panel; cited from earlier work
# CNS SF-539 = details: read-out: GI50 CNS SF-539; NCI-60 panel; cited from earlier work
# Melanoma UACC-62 [8] = details: read-out: GI50 Melanoma UACC-62; NCI-60 panel; cited from earlier work
# Ovarian OVCAR-3 [9] = details: read-out: GI50 Ovarian OVCAR-3; NCI-60 panel; cited from earlier work
# Renal SN12-C [10] = details: read-out: GI50 Renal SN12-C; NCI-60 panel; cited from earlier work
# NCI 60-cell line panel [11] = details: mean concentration that caused 50% growth inhibition in all 60 cell lines; cited from earlier work
# Lung HOP-62 [12] = test: NCI-60 cell line assay, Lung HOP-62; type: cell-based; details: Homo sapiens, HOP-62, read-out: GI50 Lung HOP-62
# Colon HCT-116 [13] = test: NCI-60 cell line assay, Colon HCT-116; type: cell-based; details: Homo sapiens, HCT-116, read-out: GI50 Colon HCT-116
# Melanoma UACC-62 [14] = test: NCI-60 cell line assay, Melanoma UACC-62; type: cell-based; details: Homo sapiens, UACC-62, read-out: GI50 Melanoma UACC-62
# Ovarian OVCAR-3 [15] = test: NCI-60 cell line assay, Ovarian OVCAR-3; type: cell-based; details: Homo sapiens, OVCAR-3, read-out: GI50 Ovarian OVCAR-3
# Renal SN12-C [16] = test: NCI-60 cell line assay, Renal SN12-C; type: cell-based; details: Homo sapiens, SN12C, read-out: GI50 Renal SN12-C
# NCI 60-cell line panel [17] = test: NCI-60 cell line assay, mean over all 60 cell lines; type: cell-based; details: for MGM: mean concentration that caused 50% growth inhibition in all 60 cell lines
# [18] = test system: various cancer lines in sealed polyvinylidine fluoride fibres implanted i.p. or s.c.; test: NCI hollow fibre assay; details: mice; for Hollow fibre assay score (maximum 96): total score
# [19] = mean of three determinations, 96 h
compound,measurement,setting,value
"COc1cc2c(cc1O)CC(C)N(Cc1cc(Br)c(OC)c(OC)c1)C2 (racemic) [Compound 11j, (±)-2-(3-Bromo-4,5-dimethoxybenzyl)-6-hydroxy-7-methoxy-3-methyl-1,2,3,4-tetrahydroisoquinoline]",GI50,[1]; [19],400 nM
same,GI50,[2]; [19],300 nM
"COc1cc2c(cc1OS(N)(=O)=O)CC(C)N(Cc1cc(Br)c(OC)c(OC)c1)C2 (racemic) [Compound 12j, (±)-2-(3-Bromo-4,5-dimethoxybenzyl)-7-methoxy-3-methyl-6-sulfamoyloxy-1,2,3,4-tetrahydroisoquinoline]",GI50,[1]; [19],50 nM
same,GI50,[2]; [19],40 nM
same,IC50,Bovine brain tubulin [3],2400 ± 200 nM
same,Colchicine binding Inhibition at 5 μM inhibitor,Bovine brain tubulin [4],50 ±4%
"COc1ccc(/C=C\c2cc(OC)c(OC)c(OC)c2)cc1O [CA-4, combretastatin A-4]",Colchicine binding Inhibition at 5 μM inhibitor,Bovine brain tubulin [5],98 ±0.7%
"COc1cc2c(cc1OS(N)(=O)=O)CC[C@@H]1[C@@H]2CC[C@]2(C)[C@@H](OS(N)(=O)=O)CC[C@@H]12 [Compound 1a, 2-methoxyestradiol-3,17-O,O-bis-sulfamate]",GI50,Lung HOP-62 [6],51 nM
same,GI50,Colon HCT-116 [7],45 nM
same,GI50,CNS SF-539,36 nM
same,GI50,Melanoma UACC-62 [8],< 10 nM
same,GI50,Ovarian OVCAR-3 [9],< 10 nM
same,GI50,Renal SN12-C [10],126 nM
same,MGM,NCI 60-cell line panel [11],0.087 µM
"COc1cc2c(cc1O)CCN(Cc1cc(Cl)c(OC)c(OC)c1)C2 [Compound 11e, 2-(3-Chloro-4,5-dimethoxybenzyl)-6-hydroxy-7-methoxy-1,2,3,4-tetrahydroisoquinoline]",GI50,Lung HOP-62 [12],869 nM
same,GI50,Colon HCT-116 [13],474 nM
same,GI50,Melanoma UACC-62 [14],350 nM
same,GI50,Ovarian OVCAR-3 [15],187 nM
same,GI50,Renal SN12-C [16],910 nM
same,MGM,NCI 60-cell line panel [17],0.501 µM
"COc1cc2c(cc1O)CCN(Cc1cc(Br)c(OC)c(OC)c1)C2 [Compound 11f, 2-(3-Bromo-4,5-dimethoxybenzyl)-6-hydroxy-7-methoxy-1,2,3,4-tetrahydroisoquinoline]",GI50,Lung HOP-62 [12],353 nM
same,GI50,Colon HCT-116 [13],143 nM
same,GI50,Melanoma UACC-62 [14],305 nM
same,GI50,Ovarian OVCAR-3 [15],74 nM
same,GI50,Renal SN12-C [16],768 nM
same,MGM,NCI 60-cell line panel [17],0.38 µM
same,Hollow fibre assay score (maximum 96),[18]; dosed i.p. at 150 mg/kg,2
"COc1cc2c(cc1OS(N)(=O)=O)CCN(Cc1cc(Cl)c(OC)c(OC)c1)C2 [Compound 12e, 2-(3-Chloro-4,5-dimethoxybenzyl)-7-methoxy-6-sulfamoyloxy-1,2,3,4-tetrahydroisoquinoline]",Increase in antiproliferative activity relative to 4a,[1]; DU-145,8- to 10 fold
same,GI50,Lung HOP-62 [12],56 nM
same,GI50,Colon HCT-116 [13],39 nM
same,GI50,Melanoma UACC-62 [14],25 nM
same,GI50,Ovarian OVCAR-3 [15],20 nM
same,GI50,Renal SN12-C [16],66 nM
same,MGM values,"NCI 60-cell line panel [17]; NCI 60-cell line assay, stated in abstract",~40 nM
same,MGM,NCI 60-cell line panel [17],0.039 µM
same,IC50,Bovine brain tubulin [3],5600 ± 700 nM
same,Colchicine binding Inhibition at 5 μM inhibitor,Bovine brain tubulin [4],32 ±3%
"COc1cc2c(cc1OS(N)(=O)=O)CCN(Cc1cc(Br)c(OC)c(OC)c1)C2 [Compound 12f, 2-(3-Bromo-4,5-dimethoxybenzyl)-7-methoxy-6-sulfamoyloxy-1,2,3,4-tetrahydroisoquinoline]",GI50,Lung HOP-62 [12],80 nM
same,GI50,Colon HCT-116 [13],38 nM
same,GI50,Melanoma UACC-62 [14],28 nM
same,GI50,Ovarian OVCAR-3 [15],18 nM
same,GI50,Renal SN12-C [16],55 nM
same,MGM,NCI 60-cell line panel [17],0.044 µM
same,IC50,Bovine brain tubulin [3],2400 ± 400 nM
same,Colchicine binding Inhibition at 5 μM inhibitor,Bovine brain tubulin [4],45 ±0.6%
same,Hollow fibre assay score for i.p. fibres,[18]; dosed i.p. at 75 mg/kg,16
same,Hollow fibre assay score for s.c. fibres,[18]; dosed i.p. at 75 mg/kg,18
same,Hollow fibre assay score (maximum 96),[18]; dosed i.p. at 75 mg/kg,34
"CCc1cc(CN2CCc3cc(OS(N)(=O)=O)c(OC)cc3C2)cc(CC)c1CC [Compound 12i, 7-Methoxy-6-sulfamoyloxy-2-(3,4,5-triethylbenzyl)-1,2,3,4-tetra-hydroisoquinoline]",GI50,Lung HOP-62 [12],2450 nM
same,GI50,Colon HCT-116 [13],1050 nM
same,GI50,Melanoma UACC-62 [14],592 nM
same,GI50,Ovarian OVCAR-3 [15],209 nM
same,GI50,Renal SN12-C [16],5290 nM
same,MGM,NCI 60-cell line panel [17],1.17 µM
"CCc1cc2c(cc1O)CCN(Cc1cc(Br)c(OC)c(OC)c1)C2 [Compound 14, 2-(3-Bromo-4,5-dimethoxybenzyl)-7-ethyl-6-hydroxy-1,2,3,4-tetrahydroisoquinoline]",GI50,"[1]; Homo sapiens, DU-145, 96 h",1200 nM
same,GI50,"[2]; Homo sapiens, MDA-MB-231, 96 h",400 nM
"CCc1cc2c(cc1OS(N)(=O)=O)CCN(Cc1cc(Br)c(OC)c(OC)c1)C2 [Compound 15, 2-(3-Bromo-4,5-dimethoxybenzyl)-7-ethyl-6-sulfamoyloxy-1,2,3,4-tetrahydroisoquinoline]",GI50,"[1]; Homo sapiens, DU-145, 96 h",20 nM
same,GI50,"[2]; Homo sapiens, MDA-MB-231, 96 h",30 nM
same,IC50,Bovine brain tubulin [3],1800 ± 40 nM
same,Colchicine binding Inhibition at 5 μM inhibitor,Bovine brain tubulin [4],78±2%
"COc1cc2c(cc1OC)CN(Cc1cc(OC)c(OC)c(OC)c1)CC2 [Compound 17a, 6,7-Dimethoxy-2-(3,4,5-trimethoxybenzyl)-1,2,3,4-tetrahydroisoquinoline]",GI50,"[1]; Homo sapiens, DU-145, 96 h",> 100000 nM
same,GI50,"[2]; Homo sapiens, MDA-MB-231, 96 h",77600 nM
same,Fold less active than 3a,[2]; MDA MB-231,120 fold
"COc1cc2c(cc1OC(C)=O)CCN(Cc1cc(OC)c(OC)c(OC)c1)C2 [Compound 17b, 6-Acetoxy-7-methoxy-2-(3,4,5-trimethoxybenzyl)-1,2,3,4-tetrahydroisoquinoline]",GI50,"[1]; Homo sapiens, DU-145, 96 h",407 nM
same,GI50,"[2]; Homo sapiens, MDA-MB-231, 96 h",340 nM
"COc1cc2c(cc1OS(C)(=O)=O)CCN(Cc1cc(OC)c(OC)c(OC)c1)C2 [Compound 17c, 7-Methoxy-6-methanesulfonyloxy-2-(3,4,5-trimethoxybenzyl)-1,2,3,4-tetrahydroisoquinoline]",GI50,"[1]; Homo sapiens, DU-145, 96 h",220 nM
same,GI50,"[2]; Homo sapiens, MDA-MB-231, 96 h",188 nM
"COc1cc(CN2CCc3cc(OCc4ccccc4)ccc3C2)cc(OC)c1OC [Compound 20a, 6-Benzyloxy-2-(3,4,5-trimethoxybenzyl)-1,2,3,4-tetrahydroisoquinoline]",GI50,"[1]; Homo sapiens, DU-145, 96 h",> 100000 nM
same,GI50,"[2]; Homo sapiens, MDA-MB-231, 96 h",> 100000 nM
"COc1cc(CN2CCc3cc(O)ccc3C2)cc(OC)c1OC [Compound 20b, 6-Hydroxy-2-(3,4,5-trimethoxybenzyl)-1,2,3,4-tetrahydroisoquinoline]",GI50,"[1]; Homo sapiens, DU-145, 96 h",151 nM
same,GI50,"[2]; Homo sapiens, MDA-MB-231, 96 h",227 nM
same,GI50,Lung HOP-62 [12],62 nM
same,GI50,Colon HCT-116 [13],35 nM
same,GI50,Melanoma UACC-62 [14],49 nM
same,GI50,Ovarian OVCAR-3 [15],19 nM
same,GI50,Renal SN12-C [16],49 nM
same,MGM,NCI 60-cell line panel [17],0.045 µM
same,IC50,Bovine brain tubulin [3],1600 ± 100 nM
same,Colchicine binding Inhibition at 5 μM inhibitor,Bovine brain tubulin [4],73±3%
"COc1ccc2c(c1)CCN(Cc1cc(OC)c(OC)c(OC)c1)C2 [Compound 20c, 6-Methoxy-2-(3,4,5-trimethoxybenzyl)-1,2,3,4-tetrahydroisoquinoline]",Fold less active than 20b,[1],20- to 200 fold
same,GI50,"[1]; Homo sapiens, DU-145, 96 h",31000 nM
same,GI50,"[2]; Homo sapiens, MDA-MB-231, 96 h",4890 nM
"COc1cc(CN2CCc3cc(OS(N)(=O)=O)ccc3C2)cc(OC)c1OC [Compound 20d, 6-Sulfamoyloxy-2-(3,4,5-trimethoxybenzyl)-1,2,3,4-tetrahydroisoquinoline]",GI50,"[1]; Homo sapiens, DU-145, 96 h",> 100000 nM
same,GI50,"[2]; Homo sapiens, MDA-MB-231, 96 h",> 100000 nM
"COc1cc(CN2CCc3cc(O)ccc3C2)cc(Cl)c1OC [Compound 20e, 2-(3-Chloro-4,5-dimethoxybenzyl)-6-hydroxy-1,2,3,4-tetrahydroisoquinoline]",Fold less active than 20b,[1],100- to 600 fold
same,GI50,"[1]; Homo sapiens, DU-145, 96 h",86000 nM
same,GI50,"[2]; Homo sapiens, MDA-MB-231, 96 h",74000 nM
"COc1cc(CN2CCc3cc(O)ccc3C2)cc(Br)c1OC [Compound 20f, 2-(3-Bromo-4,5-dimethoxybenzyl)-6-hydroxy-1,2,3,4-tetrahydroisoquinoline]",GI50,"[1]; Homo sapiens, DU-145, 96 h",35000 nM
same,GI50,"[2]; Homo sapiens, MDA-MB-231, 96 h",25000 nM
"CCOc1c(OC)cc(CN2CCc3cc(O)ccc3C2)cc1OC [Compound 20g, 2-(3,5-Dimethoxy-4-ethoxybenzyl)-6-hydroxy-1,2,3,4-tetrahydroisoquinoline]",GI50,"[1]; Homo sapiens, DU-145, 96 h",> 100000 nM
same,GI50,"[2]; Homo sapiens, MDA-MB-231, 96 h",> 100000 nM
"CCOc1cc(CN2CCc3cc(O)ccc3C2)cc(OCC)c1OCC [Compound 20h, 6-Hydroxy-2-(3,4,5-triethoxybenzyl)-1,2,3,4-tetrahydroisoquinoline]",GI50,"[1]; Homo sapiens, DU-145, 96 h",> 100000 nM
same,GI50,"[2]; Homo sapiens, MDA-MB-231, 96 h",> 100000 nM
"COc1cc(C(=O)N2CCc3cc(O)ccc3C2)cc(OC)c1OC [Compound 20i, 6-Hydroxy-2-(3,4,5-trimethoxybenzoyl)-1,2,3,4-tetrahydroisoquinoline]",GI50,"[1]; Homo sapiens, DU-145, 96 h",> 100000 nM
same,GI50,"[2]; Homo sapiens, MDA-MB-231, 96 h",> 100000 nM
"COc1cc(CCN2CCc3cc(O)ccc3C2)cc(OC)c1OC [Compound 20j, 6-Hydroxy-2-(3,4,5-trimethoxyphenethyl)-1,2,3,4-tetrahydroisoquinoline]",GI50,"[1]; Homo sapiens, DU-145, 96 h",> 100000 nM
same,GI50,"[2]; Homo sapiens, MDA-MB-231, 96 h",> 100000 nM
